Results as given in ChEMBL document CHEMBL5214890 (Eur J Med Chem, 2021).
Active and inactive are the calls of the source. The calls are words filed in the database; no cut-off is given here.

Key:
[1] = system: Mus musculus; assay: Antidiabetic activity in male […] assessed as increase in plasma FGF21 level at 30 nmol/kg, sc administered twice daily for 3 weeks; format: functional, organism-based
[2] = system: Mus musculus; assay: Antidiabetic activity in male […] assessed as reduction in body weight at 30 nmol/kg, sc administered twice daily for 3 weeks; format: functional; set-up: scale not given: the % may be the effect or the level left
[3] = Toxicity in male […] assessed as normalization of hepatic lipid content at 30 nmol/kg, sc administered twice daily for 3 weeks; format: organism-based; details: in vivo, 504 h
[4] = system: Mus musculus; assay: Antidiabetic activity in male […] assessed as decrease in serum LDL-C level at 30 nmol/kg, sc administered twice daily for 3 weeks; format: functional, organism-based
[5] = system: Mus musculus; assay: Antidiabetic activity in male […] assessed as increase in serum HDL/LDL ratio at 30 nmol/kg, sc administered twice daily for 3 weeks; format: functional, organism-based
[6] = system: Mus musculus; assay: Antidiabetic activity in male […] assessed as increase in plasma insulin level at 30 nmol/kg, sc administered twice daily for 3 weeks; format: functional, organism-based
[7] = system: Mus musculus; assay: Antidiabetic activity in male […] assessed as reduction in fasted glucose level at 30 nmol/kg, sc administered twice daily for 3 weeks; format: functional, organism-based
[8] = MRT in male Sprague-Dawley rat at 25 nmol/kg, sc administered as single dose and measured after 24 hrs by LC-MS/MS analysis; format: ADME, organism-based; details: in vivo
[9] = Toxicity in male […] assessed as decrease in hepatic lipid content at 40 nmol/kg, sc administered twice daily for 3 weeks; format: organism-based; details: in vivo, 504 h
[10] = AUC (inifinity) in male Sprague-Dawley rat at 25 nmol/kg, sc administered as single dose and measured after 24 hrs by LC-MS/MS analysis; format: ADME, organism-based; set-up: dose 25 nmol/kg, time 24 hrs, route sc; details: in vivo

MRT [8] [h]	AUC at 24 h [10] [ng·h/mL]	Structure (SMILES)	Activity [1]	Activity [2] [%]	Activity [3]	Activity [4]	Activity [5]	Activity [6]	Activity [7]	Activity [9]
		CCCCCCCCCCCCCCCC(=O)N[C@@H](CCC(=O)N[C@@H](CCC(=O)NCCCC[C@H](NC(=O)[C@H](CC(=O)O)NC(=O)[C@H](CO)NC(=O)[C@@H](NC(=O)[C@H](Cc1ccccc1)NC(=O)[C@@H](NC(=O)CNC(=O)[C@H](CCC(N)=O)NC(=O)[C@H](CO)NC(=O)[C@@H](N)Cc1cnc[nH]1)[C@@H](C)O)[C@@H](C)O)C(=O)N[C@@H](CO)C(=O)N[C@@H](CCC(=O)O)C(=O)N[C@@H](Cc1ccc(O)cc1)C(=O)N[C@@H](CC(C)C)C(=O)N[C@@H](CC(=O)O)C(=O)N[C@@H](CO)C(=O)N[C@@H](CCC(=O)O)C(=O)N[C@@H](CCCNC(=N)N)C(=O)N[C@@H](C)C(=O)N[C@@H](CCCNC(=N)N)C(=O)N[C@@H](CC(=O)O)C(=O)N[C@@H](Cc1ccccc1)C(=O)N[C@H](C(=O)N[C@@H](C)C(=O)N[C@@H](Cc1c[nH]c2ccccc12)C(=O)N[C@@H](CC(C)C)C(=O)N[C@@H](CCC(=O)O)C(=O)N[C@@H](C)C(=O)NCC(=O)NCC(=O)O)C(C)C)C(=O)O)C(=O)O	Active	26.4	Non-Toxic	Active	Active	Active	Active	
6.6	3410	CCCCCCCCCCCCCCCC(=O)N[C@@H](CCC(=O)NCCCC[C@H](NC(=O)[C@H](C)NC(=O)[C@H](C)NC(=O)[C@H](CCC(N)=O)NC(=O)CNC(=O)[C@H](CCC(=O)O)NC(=O)[C@H](CC(C)C)NC(=O)[C@H](Cc1ccc(O)cc1)NC(=O)[C@H](CO)NC(=O)[C@H](CO)NC(=O)[C@@H](NC(=O)[C@H](CC(=O)O)NC(=O)[C@H](CO)NC(=O)[C@@H](NC(=O)[C@H](Cc1ccccc1)NC(=O)[C@@H](NC(=O)CNC(=O)[C@H](CCC(=O)O)NC(=O)[C@H](C)NC(=O)[C@@H](N)Cc1cnc[nH]1)[C@@H](C)O)[C@@H](C)O)C(C)C)C(=O)N[C@@H](CCC(=O)O)C(=O)N[C@@H](Cc1ccccc1)C(=O)N[C@H](C(=O)N[C@@H](C)C(=O)N[C@@H](Cc1c[nH]c2ccccc12)C(=O)N[C@@H](CC(C)C)C(=O)N[C@H](C(=O)N[C@@H](CCCNC(=N)N)C(=O)NCC(=O)N[C@@H](CCCNC(=N)N)C(=O)NCC(=O)O)C(C)C)[C@@H](C)CC)C(=O)O								Toxic
